Earlier results in US20260256742A1, “ANDROGEN RECEPTOR ANTAGONISTS FOR THE TREATMENT OF PATIENTS WITH BIOCHEMICAL RECURRENCE OF HORMONE SENSITIVE PROSTATE CANCER” (BAYER CONSUMER CARE AG, priority 2023, published 2026).

Key:
[1] = in vivo; cited from earlier work
[2] = single oral administration; cited from earlier work
[3] = test system: nmCRPC; conditions: in combination with ADT, patients with nmCRPC; cited from earlier work
[4] = molecular target: T878A AR mutant (Homo sapiens, UniProt P10275, T878A); conditions: cited from earlier work
Sequence of T878A AR mutant (P10275 whole entry T878A): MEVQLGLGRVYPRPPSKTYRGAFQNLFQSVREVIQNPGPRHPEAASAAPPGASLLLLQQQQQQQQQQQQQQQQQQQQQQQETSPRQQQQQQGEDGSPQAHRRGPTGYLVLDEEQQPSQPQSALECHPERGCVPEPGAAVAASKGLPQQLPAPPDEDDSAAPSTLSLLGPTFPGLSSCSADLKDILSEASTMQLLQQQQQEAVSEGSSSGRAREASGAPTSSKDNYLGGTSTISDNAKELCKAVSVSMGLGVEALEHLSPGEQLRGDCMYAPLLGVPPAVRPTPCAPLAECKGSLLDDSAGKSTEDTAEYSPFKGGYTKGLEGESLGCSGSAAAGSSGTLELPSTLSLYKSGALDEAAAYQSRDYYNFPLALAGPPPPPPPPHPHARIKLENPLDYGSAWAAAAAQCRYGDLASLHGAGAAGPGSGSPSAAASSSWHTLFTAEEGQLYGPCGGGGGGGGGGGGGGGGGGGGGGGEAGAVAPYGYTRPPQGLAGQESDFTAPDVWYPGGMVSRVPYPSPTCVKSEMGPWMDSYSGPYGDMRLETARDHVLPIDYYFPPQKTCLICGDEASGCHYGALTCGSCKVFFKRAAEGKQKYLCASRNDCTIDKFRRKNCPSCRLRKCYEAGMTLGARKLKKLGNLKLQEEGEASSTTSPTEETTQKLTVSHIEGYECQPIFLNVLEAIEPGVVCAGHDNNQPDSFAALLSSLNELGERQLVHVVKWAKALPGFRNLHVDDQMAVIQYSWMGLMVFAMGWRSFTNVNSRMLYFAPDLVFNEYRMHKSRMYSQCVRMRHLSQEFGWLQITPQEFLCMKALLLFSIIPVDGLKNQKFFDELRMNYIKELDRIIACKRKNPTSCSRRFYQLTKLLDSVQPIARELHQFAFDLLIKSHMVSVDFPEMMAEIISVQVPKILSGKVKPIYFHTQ

SMILES | metastatic free survival (MFS) [3] | overall survival (OS) [3] | also measured
CC(Cn1ccc(-c2ccc(C#N)c(Cl)c2)n1)NC(=O)c1cc(C(C)O)[nH]n1 (single isomer, unassigned) [(S,R) diastereoisomer] | – | – | elimination compared with the other diastereoisomer [1]: faster elimination
CC(O)c1cc(C(=O)N[C@@H](C)Cn2ccc(-c3ccc(C#N)c(Cl)c3)n2)[nH]n1 (some centres unmarked) [[^14C]-darolutamide] | – | – | exposure in prostate tissue [2]: higher; tissue distribution [2]: wide and homogenous distribution in all tissues except the brain
CNC(=O)c1ccc(N2C(=S)N(c3cnc(C#N)c(C(F)(F)F)c3)C(=O)C23CCC3)cc1F [apalutamide] | significantly increased | significantly increased | –
CNC(=O)c1ccc(N2C(=S)N(c3ccc(C#N)c(C(F)(F)F)c3)C(=O)C2(C)C)cc1F [enzalutamide] | significantly increased | significantly increased | –
CC(C)(O)C(=O)Nc1ccc([N+](=O)[O-])c(C(F)(F)F)c1 [hydroxyflutamide] | – | – | action in T878A AR mutant [4]: AR agonists
